Consider three compounds from PMC8877962, “New Preservative-Free Formulation for the Enhanced Ocular Bioavailability of Prostaglandin Analogues in Glaucoma” (Pharmaceutics, 2022).

The nature of data set [1]: Differential scanning calorimetry of travoprost:excipient blends. In kind it is physicochemical. On the procedure:
The differential scanning calorimetry (DSC) studies were performed using a DSC 3 thermal analysis device (Mettler-Toledo GmbH, Greinfensee, Switzerland) calibrated upstream with high-purity zinc (99.99%, Tfus = 419.6 ± 0.7 °C, ΔfusH = 107.5 ± 3.2 J.g^−1), high-purity indium (99.99%, Tfus = 156.6 ± 0.3 °C, ΔfusH = 28.45 ± 0.60 J.g^−1) and controlled with both, and Milli-Q water (Merck Millipore, Burlington, MA, USA). Each sample was introduced in a 100 µL aluminum pan which was hermetically sealed afterwards. The conditions of the sample preparation, as well as the applied temperature program, were strictly identical to avoid any thermal history dependence of the samples. The cycle, performed twice on each sample, was freezing from ambient temperature to −80 °C at a rate of 5 °C/min, then holding for 3 min at −80 °C, then heating to 25 °C, at a rate of 5 °C/min under a 60 mL/min dry air flow. Travoprost, NaHA and PS80 were analyzed either alone or as binary drug:excipient blends at different weight ratios (1:3, 1:1 and 3:1, respectively). Measurements were performed on 3 independent samples (n = 3). Thermogram evaluation was performed using STARe version 16.30 (Mettler-Toledo GmbH, Greinfensee, Switzerland).
In general terms: DSC measures the heat that a sample takes up or gives off during a temperature scan.

On the set-up of data set [2]: method as in doi:10.1002/etc.5620171002. The conditions noted are these: cited from earlier work.
On the set-up of data set [3]: method as in doi:10.1007/s11743-000-0113-4. The conditions noted are these: surface tension measurement; cited from earlier work.
A short description of data set [4]: Pyrene fluorescence spectroscopy (micelle formation, CMC determination). In kind it is physicochemical. The conditions noted are these: pyrene 7.5 µM. As to the method:
Pyrene is a lipophilic fluorescent probe often used to determine the critical micellar concentration (CMC) of surfactants. Indeed, it has the interesting feature of being sensitive to the polarity of its environment and partitioning into micelles leading to an hyperchromicity. First, 40 mg of pyrene were dissolved into 10 mL of ethanol, this solution was diluted in water to achieve a stock solution with a concentration of 7.5 µM. This stock solution was used as solvent to prepare PS80 and NaHA solutions of different concentrations in triplicate. Fluorescence measurements were performed using a Varian Cary Eclipse fluorescence spectrophotometer and processed with the Cary Eclipse software version 1.1.132 (Agilent Technologies, Santa Clara, CA, USA). The data were acquired using an excitation wavelength of 230 nm with a 20 nm slit and by recording an emission scan from 350 to 450 nm with a 2.5 nm slit. Peaks 1 and 3, used to determine the fluorescence ratio I1/I3, were at approximately 372 and 383 nm, respectively. PS80 CMC was determined using a sigmoidal non-linear variable slope regression performed using GraphPad Prism version 8.0.2 for windows (GraphPad Software, San Diego, CA, USA). CMC was considered as the abscissa of the point at which the top of the sigmoid and the tangent to the inflection point crossed.

Details of data set [5]: method as in earlier work. Particulars: fluorescence-based method using pyrene-3-carboxaldehyde; cited from earlier work.
The mark [6] stands for this setting: Travoprost:Excipient mass ratio 1:0 (travoprost alone), n = 3.
Setting [7] is: Travoprost:Polysorbate 80 mass ratio 1:1.
[8] abbreviates: Travoprost:Polysorbate 80 mass ratio 1:3.
Where [9] appears, read: Travoprost:Polysorbate 80 mass ratio 3:1.
The mark [10] stands for this setting: Travoprost:Sodium Hyaluronate mass ratio 1:1.
[11] abbreviates: Travoprost:Sodium Hyaluronate mass ratio 1:3.
Setting [12] is: Travoprost:Sodium Hyaluronate mass ratio 3:1.

Where two headings read alike, the source gives them in different places.

As to `CC(C)OC(=O)CCC/C=C\C[C@@H]1[C@@H](/C=C/[C@@H](O)COc2cccc(C(F)(F)F)c2)[C@H](O)C[C@@H]1O` [Travoprost], the Tg in data set [1] (setting [6]) is −21.9 ± 0.6 °C; in data set [1] (Travoprost:Excipient mass ratio 1:0 (travoprost alone), n = 3, listed as travoprost) it was “around −22 °C”; in data set [1] (setting [7]), −54.4 ± 0.6 °C; in data set [1] (setting [8]), −58.8 ± 0.7 °C; in data set [1] (setting [9]) it was −44.2 ± 0.7 °C; in data set [1] (setting [10]), −21.4 ± 0.6 °C. Further, the Tg in data set [1] (setting [11]) was −22.3 ± 0.7 °C; in data set [1] (setting [12]) it was −20.3 ± 0.6 °C. Moreover, the “ΔCp normalized to travoprost content” value in data set [1] (setting [6]) is on record as −0.57 ± 0.05 J/g/K; in data set [1] (setting [7]), −2.04 ± 0.06 J/g/K; in data set [1] (setting [8]), −2.96 ± 0.07 J/g/K; in data set [1] (setting [9]), −1.32 ± 0.06 J/g/K; in data set [1] (setting [10]) it was −0.60 ± 0.05 J/g/K; in data set [1] (setting [11]), −0.55 ± 0.05 J/g/K. The “ΔCp normalized to travoprost content” value in data set [1] (setting [12]) is −0.58 ± 0.06 J/g/K. Also, the “shift in the Tg” value in data set [1] (in presence of PS80, when increasing the excipient content) is −22 to −58 °C.

By LogP is commonly meant a log measure of how a compound divides between an organic and an aqueous phase. In the case of `c1cc2ccc3cccc4ccc(c1)c2c34` [pyrene, Pyrene], the LogP in data set [2] is on record as 6.0.

Regarding Polysorbate 80 [PS80], the CMC in data set [3] is reported as 0.018 mM; in data set [5] it was 0.015 mM. The “I1/I3 fluorescence ratio of pyrene with increasing excipient concentration” value in data set [4] is “decrease”.
